Source: patent US7622450B2, “Flavone C-glycoside derivatives and compositions containing the derivatives” (Suntory Holdings Limited, priority 2002, dated 2009)

How the values were obtained:
DNFB-induced ear edema = test: Inhibitory effect on mouse ear contact dermatitis (DNFB-induced ear edema); format: in vivo, ICR strain mice; details: for Dose producing 50% inhibition of ear edema: DNFB-induced ear edema, mice, p.o.; for DNFB-induced edema vs control group: ICR mice, Student's t-test
Experimental: (§1) ICR strain mice at 7 weeks of age were purchased from CLEA Japan and used for experiments after preconditioning for 1 week. The yellow powder obtained in Example 1 [compound (1)] was suspended in 0.5% sodium carboxymethylcellulose/0.01N hydrochloric acid to prepare sample formulations at three concentrations corresponding to doses of 0.2, 1.0 and 5.0 μg/kg in a dose volume of 10 ml/kg. […] in six mice per group was established in 5 days by subcutaneous injection of 100 μl of a solution of 1% 2,4-dinitrofluorobenzene (DNFB) in ethanol on the back. On day 6, a solution of 1% DNFB in olive oil was applied on the right ear to induce ear contact dermatitis. After 24 hours, both ears were punched out in a diameter of 8 mm and weighed. Compound (1) was continuously orally administered for 7 days from the day before the primary challenge until the day on which edema was induced. A control group was treated with 0.5% sodium carboxymethylcellulose/0.01N hydrochloric acid. The experimental results were expressed as the average percentage of edema on the right in relation to left ears with standard deviation using Student's t-test for evaluating the significance between groups.
as §1, with “(2)]” for “(1)]”, “1.0, 10” for “0.2, 1.0”, “100” for “5.0”, “(2)” for “(1)”
The same procedures as in Experimental examples 1 and 2 were used to compare the inhibitory effects of a corticosteroid and several flavonoids (FIG. 3) on DNFB-induced ear edema formation with those of compound (1) and compound (2). The experimental results were expressed as the dose producing a 50% inhibition of DNFB-induced ear edema.

peritoneal mast cells = test: Inhibitory effect on histamine release from peritoneal mast cells (Compound 48/80); format: cell-based, Wistar strain rats; details: Mast cell, rat peritoneal mast cells
Experimental: Wistar strain rats at 7 weeks of age were purchased from CLEA Japan and used for experiments after preconditioning for 1 week. After Wistar strain rats were decapitated under ether anesthesia, Tyrode solution was intraperitoneally injected. Mast cells were routinely isolated and suspended at […] in Tyrode solution containing 0.1% bovine serum albumin (BSA) to prepare a mast cell suspension. The mast cell suspension was incubated with compound (1) or compound (2) dissolved in 50% methanol at 37° C. for 5 minutes. Then, the suspension was further incubated with Compound 48/80 at 37° C. for 10 minutes and cooled on ice and then centrifuged. Then, the free histamine content in the resulting supernatant was measured on a high-speed liquid chromatograph by the post-column method using ortho-phthalaldehyde (OPA) according to the method of Onda et al. [J. Med. Sci., 27, 93-97(1978)]. The experimental results were expressed as the percentage of histamine release inhibited by the treatment with the samples as compared with the treatment with the solvent alone.

`O=c1cc(-c2ccc(O)cc2)oc2cc(O)cc(O)c12` [Apigenin] was tested, and the “Dose producing 50% inhibition of ear edema” value (shortened to “Dose producing 50% inhibition”) (DNFB-induced ear edema) was 247 mg/kg p.o.
In the case of `O=c1cc(-c2ccc(O)cc2)oc2cc3c(c(O)c12)[C@@H]1O[C@H](CO)[C@@H](O)[C@H](O)[C@@H]1O3` [Compound (1)], the inhibition at 5 µg/mL (peritoneal mast cells; concentration 5.0 μg/ml) is reported as 62.3%, the “DNFB-induced edema vs control group” value (DNFB-induced ear edema; 1.0 μg/kg orally for 7 days) is reported as “significantly inhibited” and the “DNFB-induced edema vs control group” value (DNFB-induced ear edema; 5.0 μg/kg orally for 7 days) is reported as “significantly inhibited”. For the same compound, the “Dose producing 50% inhibition” value (DNFB-induced ear edema) was 0.05 mg/kg p.o.
With `O=c1cc(-c2ccc(O)cc2)oc2c3c(cc(O)c12)O[C@H]1[C@@H](O)[C@H](O)[C@@H](CO)O[C@@H]31` [Compound (2)] the inhibition at 50 µg/mL (peritoneal mast cells; concentration 50.0 μg/ml) was 51.2%, the “DNFB-induced edema vs control group” value (DNFB-induced ear edema; 100 μg/kg orally for 7 days) was “significantly inhibited” and the “Dose producing 50% inhibition” value (DNFB-induced ear edema) was 0.17 mg/kg p.o.
`C[C@@H]1C[C@H]2[C@@H]3CCC4=CC(=O)C=C[C@]4(C)[C@@]3(F)[C@@H](O)C[C@]2(C)[C@@]1(O)C(=O)CO` [Dexamethasone] was tested, and the “Dose producing 50% inhibition” value (DNFB-induced ear edema) was 1.5 mg/kg p.o.
`O=c1c(O)c(-c2ccc(O)c(O)c2)oc2cc(O)cc(O)c12` [Quercetin] was tested, and the “Dose producing 50% inhibition” value (DNFB-induced ear edema) was 265 mg/kg p.o.
With `C[C@@H]1O[C@@H](O[C@@H]2[C@@H](O)[C@H](O)[C@@H](CO)O[C@H]2c2c(O)cc(O)c3c(=O)cc(-c4ccc(O)cc4)oc23)[C@H](O)[C@H](O)[C@H]1O` [Rhamnosyl vitexin] the “Dose producing 50% inhibition” value (DNFB-induced ear edema) was 146 mg/kg p.o.
`C[C@@H]1O[C@@H](OC[C@H]2O[C@@H](Oc3c(-c4ccc(O)c(O)c4)oc4cc(O)cc(O)c4c3=O)[C@H](O)[C@@H](O)[C@@H]2O)[C@H](O)[C@H](O)[C@H]1O` [Rutin] was tested, and the “Dose producing 50% inhibition” value (DNFB-induced ear edema) was 123 mg/kg p.o.
In the case of `O=c1cc(-c2ccc(O)cc2)oc2c([C@@H]3O[C@H](CO)[C@@H](O)[C@H](O)[C@H]3O)c(O)cc(O)c12` [Vitexin], the “Dose producing 50% inhibition” value (DNFB-induced ear edema) is reported as 103 mg/kg p.o.
